Assay results from PubChem BioAssay AID1963979 (Molecular Pharmacology Branch, DTP, NCI, 2024).
pIC50: −log10 of the molar value.

Tested on: 361931-004-R-J1-PDC multicell spheroid viability
Test: Anticancer human tumor 361931-004-R-J1-PDC patient-derived colon adenocarcinoma cell line growth inhibition [PI3K]
Conditions: for pIC50: curve of first compound; for viability, T/C: stronger effect = lower value
How it was run: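 We assembled tumor spheroids that included a stromal compartment of HUVEC and MSCs, then exposed them to targeted agents alone and together with PI3K pathway inhibitors. Concentration series descended by half-log from clinically achievable Cmax levels. Viability served as the endpoint.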

[1] = second compound 0.0316 µM, first compound 0.0316 µM
[2] = second compound 0.0316 µM, first compound 0.1 µM
[3] = second compound 0.1 µM, first compound 0.0316 µM
[4] = second compound 0.1 µM, first compound 0.1 µM
[5] = second compound 0.316 µM, first compound 0.0316 µM
[6] = second compound 0.316 µM, first compound 0.1 µM
[7] = second compound 1 µM, first compound 0.0316 µM
[8] = second compound 1 µM, first compound 0.1 µM
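Also: spheroids exposed to agents for seven days before readout.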

SMILES: CCCS(=O)(=O)Nc1ccc(F)c(C(=O)c2c[nH]c3ncc(-c4ccc(Cl)cc4)cc23)c1F + CC(Nc1ncnc2nc[nH]c12)c1cc2cccc(Cl)c2c(=O)n1-c1ccccc1
- pIC50 (second compound 0.0316 µM): 5.28
- pIC50 (second compound 0.1 µM): 5.28
- pIC50 (second compound 0.316 µM): 5.25
- pIC50 (second compound 1 µM): 5.28
- pIC50 (second compound 3.16 µM): 5.26
- pIC50 (second compound 10 µM): 5.31
- viability, T/C [1]: 111%
- viability, T/C [2]: 97.4%
- viability, T/C (second compound 0.0316 µM, first compound 0.316 µM): 96.4%
- viability, T/C (second compound 0.0316 µM, first compound 1 µM): 97.3%
- viability, T/C (second compound 0.0316 µM, first compound 3.16 µM): 84.7%
- viability, T/C (second compound 0.0316 µM, first compound 10 µM): 7.53%
- viability, T/C [3]: 108%
- viability, T/C [4]: 101%
- viability, T/C (second compound 0.1 µM, first compound 0.316 µM): 94.3%
- viability, T/C (second compound 0.1 µM, first compound 1 µM): 89.2%
- viability, T/C (second compound 0.1 µM, first compound 3.16 µM): 84.9%
- viability, T/C (second compound 0.1 µM, first compound 10 µM): 6.96%
- viability, T/C [5]: 105%
- viability, T/C [6]: 101%
- viability, T/C (second compound 0.316 µM, first compound 0.316 µM): 96.1%
- viability, T/C (second compound 0.316 µM, first compound 1 µM): 90.9%
- viability, T/C (second compound 0.316 µM, first compound 3.16 µM): 92.1%
- viability, T/C (second compound 0.316 µM, first compound 10 µM): 6.91%
- viability, T/C [7]: 100%
- viability, T/C [8]: 99.7%
- viability, T/C (second compound 1 µM, first compound 0.316 µM): 94.9%
- viability, T/C (second compound 1 µM, first compound 1 µM): 96.8%
- viability, T/C (second compound 1 µM, first compound 3.16 µM): 83.5%
- viability, T/C (second compound 1 µM, first compound 10 µM): 7.4%
- viability, T/C (second compound 3.16 µM, first compound 0.0316 µM): 98.8%
- viability, T/C (second compound 3.16 µM, first compound 0.1 µM): 102%
- viability, T/C (second compound 3.16 µM, first compound 0.316 µM): 103%
- viability, T/C (second compound 3.16 µM, first compound 1 µM): 95.5%
- viability, T/C (second compound 3.16 µM, first compound 3.16 µM): 90.1%
- viability, T/C (second compound 3.16 µM, first compound 10 µM): 7.12%
- viability, T/C (second compound 10 µM, first compound 0.0316 µM): 99.3%
- viability, T/C (second compound 10 µM, first compound 0.1 µM): 101%
- viability, T/C (second compound 10 µM, first compound 0.316 µM): 98.1%
- viability, T/C (second compound 10 µM, first compound 1 µM): 88.3%
- viability, T/C (second compound 10 µM, first compound 3.16 µM): 78.1%
- viability, T/C (second compound 10 µM, first compound 10 µM): 7.3%

SMILES: CC(=O)c1c(C)c2cnc(Nc3ccc(N4CCNCC4)cn3)nc2n(C2CCCC2)c1=O + COc1c(OCCCN2CCOCC2)ccc2c3n(c(=NC(=O)c4cnc(N)nc4)nc12)CCN3
- pIC50 (second compound 0.00316 µM): < 7.00
- pIC50 (second compound 0.01 µM): < 7.00
- pIC50 (second compound 0.0316 µM): < 7.00
- pIC50 (second compound 0.1 µM): < 7.00
- pIC50 (second compound 0.316 µM): > 9.50
- pIC50 (second compound 1 µM): > 9.50
- viability, T/C (second compound 0.00316 µM, first compound 0.000316 µM): 99.6%
- viability, T/C (second compound 0.00316 µM, first compound 0.001 µM): 98.4%
- viability, T/C (second compound 0.00316 µM, first compound 0.00316 µM): 99.8%
- viability, T/C (second compound 0.00316 µM, first compound 0.01 µM): 97%
- viability, T/C (second compound 0.00316 µM, first compound 0.0316 µM): 101%
- viability, T/C (second compound 0.00316 µM, first compound 0.1 µM): 89.2%
- viability, T/C (second compound 0.01 µM, first compound 0.000316 µM): 101%
- viability, T/C (second compound 0.01 µM, first compound 0.001 µM): 98.8%
- viability, T/C (second compound 0.01 µM, first compound 0.00316 µM): 103%
- viability, T/C (second compound 0.01 µM, first compound 0.01 µM): 91.5%
- viability, T/C (second compound 0.01 µM, first compound 0.0316 µM): 95.4%
- viability, T/C (second compound 0.01 µM, first compound 0.1 µM): 83.4%
- viability, T/C (second compound 0.0316 µM, first compound 0.000316 µM): 93.3%
- viability, T/C (second compound 0.0316 µM, first compound 0.001 µM): 89.3%
- viability, T/C (second compound 0.0316 µM, first compound 0.00316 µM): 93.3%
- viability, T/C (second compound 0.0316 µM, first compound 0.01 µM): 87.4%
- viability, T/C [1]: 83.8%
- viability, T/C [2]: 62.9%
- viability, T/C (second compound 0.1 µM, first compound 0.000316 µM): 84.1%
- viability, T/C (second compound 0.1 µM, first compound 0.001 µM): 69.7%
- viability, T/C (second compound 0.1 µM, first compound 0.00316 µM): 73.7%
- viability, T/C (second compound 0.1 µM, first compound 0.01 µM): 72.8%
- viability, T/C [3]: 67.9%
- viability, T/C [4]: 53.1%
- viability, T/C (second compound 0.316 µM, first compound 0.000316 µM): 50.7%
- viability, T/C (second compound 0.316 µM, first compound 0.001 µM): 45.7%
- viability, T/C (second compound 0.316 µM, first compound 0.00316 µM): 42.3%
- viability, T/C (second compound 0.316 µM, first compound 0.01 µM): 41.8%
- viability, T/C [5]: 49.6%
- viability, T/C [6]: 38.1%
- viability, T/C (second compound 1 µM, first compound 0.000316 µM): 23.1%
- viability, T/C (second compound 1 µM, first compound 0.001 µM): 17.9%
- viability, T/C (second compound 1 µM, first compound 0.00316 µM): 16.4%
- viability, T/C (second compound 1 µM, first compound 0.01 µM): 19.7%
- viability, T/C [7]: 21%
- viability, T/C [8]: 15.2%
